Test results published in PMC4800267 (Assay and Drug Development Technologies, 2016).
Where “and” joins values, the source holds several entries; their conditions need not be identical. Equal values may be shown once. Entries after “also recorded” stand apart in the source; their conditions may differ. Read-outs that look alike come from different tables or passages of the source.

Legend:
mNav1.6 = mNav1.6 in Xenopus oocytes; cited from earlier work
hNav1.3 = hNav1.3 (Homo sapiens, UniProt Q9NY46); assay type: cell-based; settings: inactivated-state Peak 2
Chain of hNav1.3 (Q9NY46 whole entry): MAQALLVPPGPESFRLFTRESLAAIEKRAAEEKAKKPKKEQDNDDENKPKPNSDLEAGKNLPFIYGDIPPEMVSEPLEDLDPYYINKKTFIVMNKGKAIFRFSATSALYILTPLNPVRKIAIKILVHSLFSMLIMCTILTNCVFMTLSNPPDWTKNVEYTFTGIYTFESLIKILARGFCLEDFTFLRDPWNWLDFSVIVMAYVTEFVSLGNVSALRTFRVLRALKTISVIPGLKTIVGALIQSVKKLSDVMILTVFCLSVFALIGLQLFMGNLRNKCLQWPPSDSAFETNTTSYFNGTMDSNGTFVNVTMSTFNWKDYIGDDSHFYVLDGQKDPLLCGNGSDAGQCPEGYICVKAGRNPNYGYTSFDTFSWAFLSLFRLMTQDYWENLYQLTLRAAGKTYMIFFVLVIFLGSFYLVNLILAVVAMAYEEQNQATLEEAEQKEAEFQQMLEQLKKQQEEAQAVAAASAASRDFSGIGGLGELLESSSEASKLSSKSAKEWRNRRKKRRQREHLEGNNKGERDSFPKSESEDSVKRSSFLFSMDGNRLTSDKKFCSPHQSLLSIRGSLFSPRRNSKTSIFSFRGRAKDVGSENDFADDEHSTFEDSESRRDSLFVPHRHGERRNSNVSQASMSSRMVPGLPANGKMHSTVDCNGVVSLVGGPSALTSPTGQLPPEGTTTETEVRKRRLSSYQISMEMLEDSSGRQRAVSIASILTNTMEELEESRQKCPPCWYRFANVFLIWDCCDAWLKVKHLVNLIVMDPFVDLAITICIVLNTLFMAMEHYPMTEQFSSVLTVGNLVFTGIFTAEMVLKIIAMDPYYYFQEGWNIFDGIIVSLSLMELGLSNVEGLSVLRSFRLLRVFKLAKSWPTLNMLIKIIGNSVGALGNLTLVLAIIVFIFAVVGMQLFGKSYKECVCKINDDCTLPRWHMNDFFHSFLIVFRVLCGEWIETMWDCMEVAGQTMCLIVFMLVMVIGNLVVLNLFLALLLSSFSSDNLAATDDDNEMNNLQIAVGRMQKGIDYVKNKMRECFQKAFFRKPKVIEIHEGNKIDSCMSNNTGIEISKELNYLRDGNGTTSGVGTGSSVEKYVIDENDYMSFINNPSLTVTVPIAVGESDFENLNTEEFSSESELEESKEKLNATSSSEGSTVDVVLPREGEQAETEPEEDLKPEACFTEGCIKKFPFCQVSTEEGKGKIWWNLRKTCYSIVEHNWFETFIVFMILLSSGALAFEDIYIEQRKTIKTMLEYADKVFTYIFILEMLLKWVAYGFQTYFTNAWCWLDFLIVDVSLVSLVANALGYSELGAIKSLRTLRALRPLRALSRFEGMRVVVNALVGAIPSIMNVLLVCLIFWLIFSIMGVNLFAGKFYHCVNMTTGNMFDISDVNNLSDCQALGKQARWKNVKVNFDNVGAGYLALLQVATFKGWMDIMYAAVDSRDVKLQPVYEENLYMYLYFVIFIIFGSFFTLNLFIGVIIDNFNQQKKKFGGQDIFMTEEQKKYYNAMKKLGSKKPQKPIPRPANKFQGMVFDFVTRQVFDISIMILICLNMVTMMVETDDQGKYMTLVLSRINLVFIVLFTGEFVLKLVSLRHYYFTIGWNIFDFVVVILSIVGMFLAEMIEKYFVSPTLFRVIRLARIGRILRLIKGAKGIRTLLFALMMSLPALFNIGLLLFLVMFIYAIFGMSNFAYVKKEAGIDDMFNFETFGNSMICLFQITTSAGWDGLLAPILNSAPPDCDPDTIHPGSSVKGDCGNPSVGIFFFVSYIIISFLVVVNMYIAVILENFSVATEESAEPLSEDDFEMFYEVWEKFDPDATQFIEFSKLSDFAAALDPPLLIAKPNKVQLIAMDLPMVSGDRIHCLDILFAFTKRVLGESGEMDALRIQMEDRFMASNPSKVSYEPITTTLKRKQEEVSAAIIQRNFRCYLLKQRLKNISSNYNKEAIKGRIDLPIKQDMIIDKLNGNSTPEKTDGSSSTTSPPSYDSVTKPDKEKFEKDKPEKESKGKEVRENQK

hNav1.7 = hNav1.7 (Homo sapiens, UniProt Q15858); settings: hNav1.7 in Xenopus oocytes; cited from earlier work
Chain of hNav1.7 (Q15858 whole entry): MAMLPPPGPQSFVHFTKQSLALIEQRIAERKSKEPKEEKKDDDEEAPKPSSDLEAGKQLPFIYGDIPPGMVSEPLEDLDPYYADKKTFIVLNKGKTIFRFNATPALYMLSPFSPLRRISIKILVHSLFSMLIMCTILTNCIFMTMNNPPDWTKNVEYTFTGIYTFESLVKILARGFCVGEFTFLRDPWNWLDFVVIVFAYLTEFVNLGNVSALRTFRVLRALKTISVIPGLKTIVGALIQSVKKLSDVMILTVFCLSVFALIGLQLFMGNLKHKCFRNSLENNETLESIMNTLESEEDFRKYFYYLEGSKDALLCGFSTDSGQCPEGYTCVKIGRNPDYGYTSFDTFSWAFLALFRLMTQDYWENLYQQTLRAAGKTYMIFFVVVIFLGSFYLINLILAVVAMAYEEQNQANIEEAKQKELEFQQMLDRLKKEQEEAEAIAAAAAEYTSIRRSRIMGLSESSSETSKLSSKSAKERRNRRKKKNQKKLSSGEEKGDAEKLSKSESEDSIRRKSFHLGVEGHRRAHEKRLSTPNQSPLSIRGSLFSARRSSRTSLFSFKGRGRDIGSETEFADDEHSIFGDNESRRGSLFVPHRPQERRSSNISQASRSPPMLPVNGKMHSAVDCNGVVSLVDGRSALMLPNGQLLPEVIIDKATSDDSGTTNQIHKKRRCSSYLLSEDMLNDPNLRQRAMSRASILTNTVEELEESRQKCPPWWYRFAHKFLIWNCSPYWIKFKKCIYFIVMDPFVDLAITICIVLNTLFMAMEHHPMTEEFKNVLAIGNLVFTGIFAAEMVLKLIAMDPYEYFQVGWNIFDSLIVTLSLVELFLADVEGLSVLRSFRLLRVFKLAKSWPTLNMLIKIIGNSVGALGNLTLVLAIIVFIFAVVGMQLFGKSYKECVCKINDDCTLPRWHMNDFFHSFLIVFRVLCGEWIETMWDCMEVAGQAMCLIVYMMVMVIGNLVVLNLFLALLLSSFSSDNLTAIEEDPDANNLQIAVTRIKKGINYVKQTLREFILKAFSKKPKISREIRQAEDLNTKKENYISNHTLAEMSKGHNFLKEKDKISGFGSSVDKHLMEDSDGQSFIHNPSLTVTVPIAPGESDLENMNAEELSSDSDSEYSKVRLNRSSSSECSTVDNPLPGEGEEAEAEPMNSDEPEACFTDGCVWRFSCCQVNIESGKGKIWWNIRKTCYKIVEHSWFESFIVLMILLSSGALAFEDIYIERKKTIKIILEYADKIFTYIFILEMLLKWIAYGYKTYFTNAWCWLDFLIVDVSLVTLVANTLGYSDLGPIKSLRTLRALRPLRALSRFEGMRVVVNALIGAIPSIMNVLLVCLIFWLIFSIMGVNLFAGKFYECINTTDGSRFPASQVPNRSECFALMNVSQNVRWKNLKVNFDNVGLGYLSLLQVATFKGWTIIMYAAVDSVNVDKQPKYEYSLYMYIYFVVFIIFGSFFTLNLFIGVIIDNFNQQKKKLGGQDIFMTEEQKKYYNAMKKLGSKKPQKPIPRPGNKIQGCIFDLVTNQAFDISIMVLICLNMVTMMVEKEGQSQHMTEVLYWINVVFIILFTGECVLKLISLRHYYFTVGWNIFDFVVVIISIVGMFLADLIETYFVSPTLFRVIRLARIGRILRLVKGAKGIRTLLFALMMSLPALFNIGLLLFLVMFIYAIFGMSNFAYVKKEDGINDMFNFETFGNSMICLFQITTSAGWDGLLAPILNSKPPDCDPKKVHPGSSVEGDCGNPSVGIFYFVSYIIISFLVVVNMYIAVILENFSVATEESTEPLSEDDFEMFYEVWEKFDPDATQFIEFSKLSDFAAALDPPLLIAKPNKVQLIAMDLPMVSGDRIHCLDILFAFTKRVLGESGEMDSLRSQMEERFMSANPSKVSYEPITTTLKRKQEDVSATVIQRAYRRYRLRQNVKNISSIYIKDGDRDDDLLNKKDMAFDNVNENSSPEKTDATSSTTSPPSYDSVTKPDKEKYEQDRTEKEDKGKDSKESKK

hNav1.5 = hNav1.5 on QPatch; cited from earlier work
[1] = system: endogenous TTX-S currents in ND7-23 cells; assay: cells; assay type: cell-based, rodent; settings: for effect on resting- or inactivated-state TTX-S currents: 300 nM
rNav1.4 = rNav1.4 in Xenopus oocytes; cited from earlier work
Nav1.1 = settings: read-out: IC50 Nav1.1; cited from earlier work
Nav1.3 = settings: read-out: IC50 Nav1.3; cited from earlier work
rat Nav1.7 = settings: cited from earlier work

O=C(Nc1ccc(S(=O)(=O)Nc2nccs2)cc1)[C@@H]1C[C@H]1c1ccccc1 [Icagen compound 68, (1R,2R)-2-phenyl-N-(4-(N-(thiazol-2-yl)sulfamoyl)phenyl)cyclopropane-1-carboxamide]
effects on resting or inactivated current amplitudes (mNav1.6): no significant effects | hillslope, Peak 2 (hNav1.3): 1.2 | effects on resting or inactivated current amplitudes (hNav1.7): no significant effects | effects on resting or inactivated current amplitudes (hNav1.5): no significant effects | effect on resting- or inactivated-state TTX-S currents [1]: no effect; also recorded: negligible effects | effect on resting- or inactivated-state TTX-S currents ([1]; listed as Icagen Nav1.3 antagonist): no significant effect | reduction of resting-state Peak 1 TTX-S current ([1]; 1 μM, Peak 1, mean ± SEM): 0.7% ± 3.0% | reduction of inactivated Peak 2 TTX-S current ([1]; 1 μM, Peak 2, mean ± SEM): 8.5% ± 1.7% and 8.5% | inhibition at 0.3 µM ([1]; ND7/23, read-out: ND7-23 TTX-S % Inhibition, Peak 1): 0.8% | inhibition at 0.3 µM ([1]; ND7/23, read-out: ND7-23 TTX-S % Inhibition, Peak 2): -0.5% | IC50 ([1]; ND7/23, read-out: ND7-23 TTX-S IC50, Peak 1): > 10 µM | IC50 ([1]; ND7/23, read-out: ND7-23 TTX-S IC50, Peak 2): > 10 µM | inhibition at 0.3 µM ([1]; ND7/23, read-out: inhibition of inward TTX-S currents): ~0.5% | inhibition of TTX-S currents, maximum over all concentrations tested ([1]; all test concentrations): < 50% | effects on resting or inactivated current amplitudes (rNav1.4): no significant effects

O=C(Nc1ccc(S(=O)(=O)Nc2nccs2)cc1)C(c1ccccc1)c1ccccc1 [ICA-121431]
IC50 (Nav1.1): ~0.02 µM | IC50 (Nav1.3): ~0.02 µM | potency against rat Nav1.7 channels (rat Nav1.7): low nanomolar potency
